Data reported in US20230233674A1 (priority 2022, published 2023).

Tested on: Influenza A/Hong Kong/2369/2009 (H1N1)
Settings: mouse, in vivo

CCOC(=O)C1=C[C@@H](OC(CC)CC)[C@H](NC(C)=O)[C@@H](N)C1 [Oseltamivir]
mean peak weight loss: −32% | mice that succumbed to the disease: 90% | treatment effect: no significant effect
